Test results from US20040228889A1, “Use of N-arylmethylene ethylenediaminetriacetates, N-arylmethylene iminodiacetated or N,N'-diarylmethylene ethylenediamineacetates as doners of NO” (L'OREAL S.A., priority 2003, published 2004).

Experiments:
[1] = target: T1, inducible NO synthase (NOS2) (Homo sapiens, UniProt P35228); assay: screening test of the modulation of induction of NOS2 by normal human keratinocytes (nitrite and nitrate measurement); assay type: cell-based; settings: for % inhibition: cytokine-induced normal human keratinocytes, nitrites and nitrates
T1 construct: endogenous in cells; host or cells: normal human keratinocytes (primary culture), induced with interferon-gamma and interleukin 1-beta
T1 sequence (P35228 whole entry): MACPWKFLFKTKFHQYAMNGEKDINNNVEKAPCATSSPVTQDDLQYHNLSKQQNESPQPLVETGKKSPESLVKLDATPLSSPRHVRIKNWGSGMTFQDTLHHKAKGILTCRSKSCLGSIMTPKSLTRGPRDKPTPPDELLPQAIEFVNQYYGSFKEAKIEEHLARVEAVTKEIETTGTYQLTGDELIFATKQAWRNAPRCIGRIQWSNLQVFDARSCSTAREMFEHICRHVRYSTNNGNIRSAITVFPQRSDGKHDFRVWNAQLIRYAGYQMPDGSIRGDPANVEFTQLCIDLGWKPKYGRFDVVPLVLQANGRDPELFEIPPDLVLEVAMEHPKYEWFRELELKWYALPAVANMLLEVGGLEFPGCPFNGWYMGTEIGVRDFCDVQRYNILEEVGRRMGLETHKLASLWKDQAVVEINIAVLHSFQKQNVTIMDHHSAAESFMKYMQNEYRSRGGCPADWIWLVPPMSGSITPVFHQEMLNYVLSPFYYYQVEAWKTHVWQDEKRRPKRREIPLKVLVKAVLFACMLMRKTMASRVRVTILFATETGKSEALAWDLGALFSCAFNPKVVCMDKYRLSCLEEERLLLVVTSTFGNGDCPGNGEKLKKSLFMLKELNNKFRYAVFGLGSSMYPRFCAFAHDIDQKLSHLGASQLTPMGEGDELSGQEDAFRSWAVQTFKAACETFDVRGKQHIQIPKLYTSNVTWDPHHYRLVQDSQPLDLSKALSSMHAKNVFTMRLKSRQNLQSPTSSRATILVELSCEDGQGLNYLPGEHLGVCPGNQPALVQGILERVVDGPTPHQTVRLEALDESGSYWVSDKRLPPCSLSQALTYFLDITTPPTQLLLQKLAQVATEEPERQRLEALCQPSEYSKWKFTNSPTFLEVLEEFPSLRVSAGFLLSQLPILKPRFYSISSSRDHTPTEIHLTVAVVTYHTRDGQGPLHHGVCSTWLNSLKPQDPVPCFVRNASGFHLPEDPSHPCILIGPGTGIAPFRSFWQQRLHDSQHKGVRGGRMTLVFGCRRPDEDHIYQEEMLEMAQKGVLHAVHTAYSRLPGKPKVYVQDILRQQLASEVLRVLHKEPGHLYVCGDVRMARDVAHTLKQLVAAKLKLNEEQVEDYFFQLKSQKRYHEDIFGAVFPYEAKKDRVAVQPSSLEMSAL
Method: The activity of N,N′-bis-(3,4,5-trimethoxybenzyl) ethylenediamine-diacetic acid on the inducible NO synthase was evaluated in the assay described by Heck et al. (J.B.C., vol. 267, No. 30, 21277-21280, 25 Oct. 1992), a screening test of the modulation of induction of NOS2 by normal human keratinocytes. The objective of this test is, briefly, to evaluate the concentration of nitrate and nitrite after stimulation of the NO-synthase 2.
The test is carried out on a culture of normal human keratinocytes, derived from samples taken. The induction of the inducible NO synthase (NOS2) was caused by the addition of a combination of several cytokines to the culture medium. The product tested was applied at three concentrations varying from 10 to 1000 μM.
The product tested was classed in one of the following two categories: inhibitor (I) or donor (D) of NO (nitric oxide) according to its capacity to diminish or increase, respectively, the quantity of nitrites and nitrates produced compared to the control signal […].
The following controls were introduced in the test:
A: positive control (induction of the enzyme): mixtures of interferon-γ(1000 u/ml) and interleukin 1-β (100 u/ml)
In order to determine the activity of the test product the quantity of stable NO reaction products (nitrites and nitrates) is measured with the aid of the “nitric colorimetric assay” kit sold by the Boehringer company under catalogue number 1756.28.
N,N′-bis(3,4,5-trimethoxybenzyl) ethylenediamine-diacetic acid was tested at concentrations of 100 μM, 500 μM and 1000 μM in ethanol.

[2] = system: normal human keratinocytes; assay: cytotoxicity, % diminution of the signal compared with the control; assay type: cell-based; settings: concentration equal to or lower than 500 μM
Description: Moreover, the cytotoxicity was expressed as % diminution of the signal compared with the control. A product was considered not to be very cytotoxic from 0-20%, acceptable up to 40% and not retained for values >40%.

classification as inhibitor (I) or donor (D) of NO ([1]; quantity of nitrites and nitrates produced compared to the control signal): NO donor effect
% inhibition ([1]; test product 100 μM in ethanol): 29%
% inhibition ([1]; test product 500 μM in ethanol): 70%
% inhibition ([1]; test product 1000 μM in ethanol): 84%
SMILES: COc1cc(CN(CCN(CC(=O)O)Cc2cc(OC)c(OC)c(OC)c2)CC(=O)O)cc(OC)c1OC [N,N′-bis-(3,4,5-trimethoxybenzyl) ethylenediamine-diacetic acid]
cytotoxicity [2]: not toxic
